Results as given in paper PMC12679539, “Synthesis and evaluation of nitroheterocyclic aromatic adamantane amides with trypanocidal activity. Part II” (RSC Medicinal Chemistry, 2025).

Columns and labels:
[1] = test system: L. infantum intracellular amastigotes; assay: Activity against intracellular L. infantum amastigotes in THP-1 derived macrophages (luciferase); assay type: cell-based, Leishmania infantum (MHOM/MA/67/ITMAP-263); conditions: Leishmania infantum; for inhibition at 10 µM: THP-1, 72 h, read-out: L. infantum (intracellular amastigotes) % of growth inhibition at 10 μM ± ST DEV
Protocol: Leishmania infantum Luciferase-expressing L. infantum (strain MHOM/MA/67/ITMAP-263) axenic amastigotes were cultured in MAA/20 medium at 37 °C with 5% CO2, as described by Sereno et al. 1998.[26] The parasites were maintained in 5 mL T25 ventilated flasks and subcultured every seven days at a concentration of 1 × 10^6 cells per mL.
The activity against intracellular amastigotes of L. infantum was evaluated using a modified method described by Santarem, Tavares, and Cordeiro-da-Silva (2019).[27] THP-1 cells were differentiated into macrophages using PMA, as previously outlined. The differentiated macrophages were then infected with L. infantum axenic amastigotes expressing episomal luciferase at a macrophage-to-amastigote ratio of 1 : 10 for four hours at 37 °C in a 5% CO2 atmosphere. After this incubation, non-internalized parasites were washed away, and various concentrations of test compounds were added in a final volume of 100 μL. A dose–response curve for miltefosine was included in all assays to serve as a quality control. Each experimental condition was tested in quadruplicate. After 72 hours of incubation, the medium was replaced with 100 μL of PBS, and 25 μL of Glo-lysis buffer from the Steady-Glo Luciferase Assay System (Promega, Madison, WI, USA) was added. The plates were then agitated at 100 rpm for 10 minutes at room temperature. Following this, 30 μL of the Steady-Glo reagent (Promega, Madison, WI, USA) was added, and the mixture was incubated for 15 minutes in the dark under the same conditions. A total of 140 μL from each well was transferred to white-bottom 96-well plates, and luminescence intensity was measured using a Synergy 2 Multi-Mode Reader (Biotek, Winooski, VT, USA). The antileishmanial effect was assessed by comparing the results with those from non-treated infected cells. The IC50 value were determined through non-linear regression analysis using GraphPad Prism version 8.1.1 for Windows (GraphPad Software, San Diego, CA, USA). Results represent the average of at least three independent experiments.

[2] = test system: T. cruzi intracellular amastigotes; assay: microbe, parasite or virus in culture; assay type: cell-based, Trypanosoma cruzi CL Brener PpyRE9h:mScarlet; conditions: Trypanosoma cruzi, 120 h; in HeLa cells, 5 days
Protocol: Assays were performed in 96-well black (clear bottom) microtitre plates (Corning Inc.). HeLa ^† cells were seeded at 10^4 per well, incubated for 3 days, and then infected with T. cruzi CL Brener PpyRE9h : mScarlet[25] culture form trypomastigotes (1 : 1 multiplicity of infection). After 16 hours, extracellular parasites were removed by washing in growth medium (×3), test compounds were added, and the plates incubated for 5 days. Fluorescence intensities were then determined using a BMG FLUOstar Omega plate reader (ex 545 nm, em 590 nm), and the data analysed using GraphPad Prism 9.0 software. The values were expressed as IC50/90 ± SD and are the mean of triplicate experiments.

T. cruzi epimastigotes = assay: Activity against Trypanosoma cruzi epimastigotes (Alamar Blue growth inhibition); assay type: cell-based, Trypanosoma cruzi (strain CL Brener); conditions: CL Brener
Protocol: (§1) Trypanocidal activity was assessed by growing parasites in microtiter plates in the presence of various drug concentrations. […] The plates were incubated for 4 days at 28 °C and 20 μL Alamar Blue (Biosource UK Ltd) was then added to each well. After an additional 3 days incubation, the fluorescence was determined using a Gemini fluorescent plate reader (Molecular Devices). Inhibition of growth was calculated by comparison with control values and IC50 and IC90 values were determined in triplicate using linear regression analysis.

[3] = test system: bloodstream-form Trypanosoma brucei; assay: Activity against bloodstream-form Trypanosoma brucei (Alamar Blue growth inhibition); assay type: cell-based, Trypanosoma brucei (strain 427); conditions: for IC50 / IC90: Trypanosoma brucei, bloodstream form; for IC50: concentration that inhibits growth by 50%, read-out: T. brucei IC50; for IC90: concentration that inhibits growth by 90%, read-out: T. brucei IC90; for S.I. (selectivity index): ratio of IC50 values obtained with L6 cells and T. brucei
Protocol: as §1, with “Bloodstream form T. brucei (strain 427) were cultured at 37 °C in modified Iscove's medium. Trypanocidal” for “Trypanocidal”, “48 hours” for “4 days”, “37” for “28”, “Blue” for “Blue (Biosource UK Ltd)”, “overnight” for “3 days”

[4] = Cytotoxicity on THP-1-derived macrophages (MTT assay); assay type: cell-based; conditions: human, THP-1-derived macrophages (PMA-differentiated), value or interval
Protocol: The THP-1 cell line, a human leukemia line (ATCC® TIB-202™), was cultured in RPMI-1640 medium supplemented with 10% heat-inactivated fetal bovine serum (FBS), 2 mM. L-Glutamine, 100 IU mL^−1 penicillin/streptomycin, and 20 mM HEPES. The cells were maintained in a humidified incubator at 37 °C with 5% CO2. Subculturing was performed every three days, using 20 mL of media at a concentration of 2 × 10^5 cells per mL in a T75 flask. All cell culture reagents were purchased from Lonza Bioscience (Morrisville, NC).
The cytotoxicity of the compounds on THP-1-derived macrophages was evaluated using the colorimetric MTT assay (3-(4,5-dimethylthiazol-2-yl)-2,5-diphenyltetrazolium bromide), as described in Magoulas et al. (2021).[28] THP-1 cells were suspended in complete RPMI medium at a density of 1 × 10^6 cells per mL, and 100 μL of this suspension was seeded into each well of a 96-well plate. The cells were differentiated into macrophages by adding 40 ng mL^−1 of phorbol-myristate 13-acetate (PMA, Sigma, Saint Louis, MI, USA) for 24 hours, followed by replacement with fresh medium for an additional 24 hours. Subsequently, the cells were incubated with 100 μL of various compounds, diluted in complete RPMI medium, at concentrations ranging from 100 to 12.5 μM. Each condition was tested in triplicate. After 72 hours of incubation at 37 °C with 5% CO2, the medium was removed, and 200 μL of a 0.5 mg mL^−1 MTT solution, diluted in RPMI, was added to each well. The plates were incubated for an additional 4 hours. Following this incubation, 160 μL of the medium was removed and replaced with 160 μL of 2-propanol. Absorbance was measured at 570 nm using a Synergy 2 Multi-Mode Reader (Biotek, Winooski, VT, USA). Cytotoxicity was determined by presenting the CC50 (the concentration of the drug that reduces cell viability by 50%) interval or by calculating the CC50 value through non-linear regression analysis using GraphPad Prism version 8.1.1 for Windows (GraphPad Software, San Diego, CA, USA). The results represent the average of at least three independent experiments.

Question: For `O=C(CCc1ccc(C23CC4CC(CC(C4)C2)C3)cc1)NCCn1cnc([N+](=O)[O-])n1` [6c, 3-[4-(1-Adamantyl)phenyl]-N-[2-(3-nitro-1H-1,2,4-triazol-1-yl)ethyl]propanamide], which inhibition at 10 µM [1] is on record?
Answer: 47.6 ± 16.3%

Question: And the IC50 [2]?
Answer: 1580 ± 70 nM

Question: What about the IC90 [2] of the same molecule?
Answer: 3230 ± 850 nM

Question: And the IC50 (T. cruzi epimastigotes)?
Answer: 450 ± 20 nM

Question: And the IC90 (T. cruzi epimastigotes)?
Answer: 1200 ± 20 nM

Question: What about the IC50 [3] of the same molecule?
Answer: 200 ± 20 nM

Question: What about the IC90 [3] of the same molecule?
Answer: 320 ± 10 nM

Question: What about the “S.I. (selectivity index)” value [3] of the same molecule?
Answer: 114

Question: And the CC50 at 72 h [4]?
Answer: > 100000 nM

Question: Which inhibition at 10 µM [1] does the source give for `O=C(Cc1ccc(C23CC4CC(CC(C4)C2)C3)cc1)NCCn1cnc([N+](=O)[O-])n1` [6b, 2-[4-(1-Adamantyl)phenyl]-N-[2-(3-nitro-1H-1,2,4-triazol-1-yl)ethyl]acetamide] here?
Answer: 50.1 ± 23%

Question: And the IC50 [2]?
Answer: 1830 ± 700 nM

Question: What about the IC90 [2] of the same molecule?
Answer: 4290 ± 310 nM

Question: And the IC50 (T. cruzi epimastigotes)?
Answer: 200 ± 30 nM

Question: And the IC90 (T. cruzi epimastigotes)?
Answer: 660 ± 40 nM

Question: What about the IC50 [3] of the same molecule?
Answer: 420 ± 70 nM

Question: What about the IC90 [3] of the same molecule?
Answer: 1800 ± 200 nM

Question: What about the “S.I. (selectivity index)” value [3] of the same molecule?
Answer: 72

Question: And the CC50 at 72 h [4]?
Answer: 50000 to 100000 nM

Question: For `O=C(Cc1ccc(C23CC4CC(CC(C4)C2)C3)cc1)NCCCn1cnc([N+](=O)[O-])n1` [6e, 2-[4-(1-Adamantyl)phenyl]-N-[3-(3-nitro-1H-1,2,4-triazol-1-yl)propyl]acetamide], which inhibition at 10 µM [1] is on record?
Answer: 59.5 ± 12%

Question: And the IC50 ([1]; THP-1 derived macrophages, 72 h, 95% CI in brackets, read-out: L. infantum (intracellular amastigotes) IC50 (μM), 95% CI)?
Answer: 6.93 µM

Question: And the IC50 [2]?
Answer: 2480 ± 310 nM

Question: And the IC90 [2]?
Answer: 7080 ± 470 nM

Question: And the IC50 (T. cruzi epimastigotes)?
Answer: 140 ± 10 nM

Question: What about the IC90 (T. cruzi epimastigotes) of the same molecule?
Answer: 270 ± 20 nM

Question: And the IC50 [3]?
Answer: 240 ± 10 nM

Question: And the IC90 [3]?
Answer: 400 ± 10 nM

Question: And the “S.I. (selectivity index)” value [3]?
Answer: 96

Question: And the CC50 at 72 h [4]?
Answer: 50000 to 100000 nM
